Measured values taken from patent publication US6303761A, “Triaminepentaacetic acid compound and paramagnetic metal complex prepared from using the compound as ligand” (Department of Health The Executive Yuan, Republic of China, priority 1999, dated 2001).
Several values for one entry are separate records, joined by “and”; a condition that tells them apart may be missing. Identical values can stand only once. Like-named read-outs stand apart in the source and are kept apart here.

Key:
[1] = Selectivity constant of the ligand for Gd^3+ over Ca^2+; type: physicochemical
[2] = type: physicochemical
[3] = Thermodynamic and conditional stability constants of the Ca^2+ complexes (potentiometric titration, program BEST); type: physicochemical; conditions: 25.0 ± 0.1° C., aqueous Me4 NNO3, I = 0.10 mol dm^-3
Experimental: (§1) The pH electrode was calibrated using two standard buffer solutions with pH 7.0±0.05 and pH 4.0±0.05 respectively. The ionic strength was 0.10 mol dm^-3 Me4 NNO3 ((CH3)4 NNO3). […] The titrant used was 0.1 mol dm^-3 NaOH with a titration amount of 0.005 ml/time.
(§2) (1) Direct Potentiometric Titration: The metal ion and ligand is mixed in 1:1 molar ratio.
(§3) (2) Ligand-ligand Competition Titration: The metal ion, ligand, and EDTA is mixed in 1:1:1 molar ratio.
(§4) M: metal ion, L: organic ligand, ML: metal complex The conditional stability constant is defined by equation (2): [formula]
(§5) The relationship between the conditional stability constant and the thermodynamic stability constant is defined by equation (3): [formula]
(§6) K2^H [H^+ ]^2 + . . . }^-1 =KthermαH

pM value, Gd^3+ = conditions: pH 7.4, TL 1.1×10^-5, TM 1.0×10^-6 mol dm^-3
pM value, Zn^2+ = conditions: pH 7.4, TL 1.1×10^-5, TM 1.0×10^-6 mol dm^-3
[4] = Thermodynamic and conditional stability constants of the Zn^2+ complexes (potentiometric titration, program BEST); type: physicochemical; conditions: 25.0 ± 0.1° C., aqueous Me4 NNO3, I = 0.10 mol dm^-3
Experimental: as §1, §2, §3, §4, §5, §6

pM value, Cu^2+ = conditions: pH 7.4, TL 1.1×10^-5, TM 1.0×10^-6 mol dm^-3
[5] = Selectivity constant of the ligand for Gd^3+ over Zn^2+; type: physicochemical
[6] = Species distribution of the ligands at various pH values (SPE, SPEPLOT); type: physicochemical; conditions: 7.0×10^-3 mol dm^-3 system
Excerpt: The average difference between observed and calculated -log[H^+ ] was <0.04 throughout all titrations.
When pH=7.0, the concentration of [H2 L]^3- is the maximum (97.5%). In the pH 3-5 range, the dominant species is the third protonated species [H3 L]^2-. When pH=3.7, the concentration of [H3 L]^2- is the maximum (87.75%). […] When pH=9.8, the concentration of [HL]^4- is the maximum (77.5%). In the pH 2-3 range, the dominant species is the fourth protonated species [H4 L]^-. When pH=2.3, the concentration of [H4 L]^- is the maximum (60.9%). In the pH range greater than 11, the dominant species is the deprotonated species [L]^5-.
When pH=2.7, the concentration of [H4 L]^- is the maximum (55.9%). In the pH 3.5-7 range, the dominant species is the third protonated species [H3 L]^2-. When pH=5, the concentration of [H3 L]^2- is the maximum (97.7%). In the pH 7-9 range, the dominant species is the second protonated species [H2 L]^3-. When pH=8.1, the concentration of [H2 L]^3- is the maximum (86.5%). […] When pH=9.9, the concentration of [HL]^4- is the maximum (71.6%). In the pH range greater than 12, the dominant species is the deprotonated species [L]^5-. In the pH range less than 2, the dominant species is the totally protonated species [H5 L].
When pH=2.8, the concentration of [H4 L]^- is the maximum (45.9%). In the pH 3.5-7.5 range, the dominant species is the third protonated species [H3 L]^2-. When pH=5.2, the concentration of [H3 L]^2- is the maximum (99.0%). In the pH 8-9.5 range, the dominant species is the second protonated species [H2 L]^3-. When pH=8.6, the concentration of [H2 L]^3- is the maximum (78.8%). In the pH 9.5-11 range, the dominant species is the first protonated species [HL]^4-. When pH=10.1, the concentration of [HL]^4- is the maximum (67.2%). In the pH range greater than 12, the dominant species is the deprotonated species [L]^5-. In the pH range less than 2, the dominant species is the totally protonated species [H5 L].

[7] = Protonation constants of the organic ligands (potentiometric titration, program PKAS); type: physicochemical; conditions: for pKa: aqueous me4nno3, 25.0 ± 0.1° C., aqueous Me4 NNO3, I = 0.10 mol dm^-3
Experimental: The ionic strength was 0.10 mol dm^-3 Me4 NNO3 ((CH3)4 NNO3). […] The titrant used was 0.1 mol dm^-3 NaOH with a titration amount of 0.005 ml/time.

pM value, Ca^2+ = conditions: pH 7.4, TL 1.1×10^-5, TM 1.0×10^-6 mol dm^-3
[8] = Selectivity constant of the ligand for Gd^3+ over Cu^2+; type: physicochemical
[9] = for log K [GdL]/[Gd][L]: 25.0 ± 0.1° C., aqueous Me4 NNO3, I = 0.10 mol dm^-3
[10] = Thermodynamic and conditional stability constants of the Cu^2+ complexes (potentiometric titration, program BEST); type: physicochemical; conditions: 25.0 ± 0.1° C., aqueous Me4 NNO3, I = 0.10 mol dm^-3
Experimental: as §1, §2, §3, §4, §5, §6

kidney = assay: MR imaging, kidney enhancement, healthy rat; type: in vivo; conditions: 0.1 mmol/kg
Experimental: (§7) Sodium pentobarbital was injected into the tail veins of […] rats (which have a healthy liver or tumorous liver) in a dosage of 40-50 mg/kg. The rats were placed on the head coil of an 1.5 T magnetic resonance imaging instrument. The T1-weighted (TR/Te, 15/6.1 msec) image was obtained by turbo field echo with the number of signal average. The field of view (FOV), the cross-sectional thickness, and the image matrix were 22 cm, 4 mm, and 128×256 respectively.
(§8) Before injecting the contrast agent, a set of T1-weighted baseline images were taken. In the first five minutes, the images were taken at a very short time interval in order to evaluate the dynamic enhancement condition. Afterwards, the images were taken every 10, 20, 30, 40, 50, and 60 minutes in order to observe the continuous enhancement effect.
(§9) By means of the computer software contained in the MRI instrument, the region of interest (ROI) can be determined by the operator. The signal intensities (SI) of liver, phantom, and kidney were measured. The enhancement percentage of an organ (liver or kidney) and the enhancement percentage of liver relative to kidney were calculated by the following equations. The statistical method used was Wilcoxon Signed Rank Test. [formula] [formula]

[11] = Relaxivity R1 and its pH dependence
[12] = in vivo; cited from earlier work
liver = assay: MR imaging, liver enhancement, healthy rat; type: in vivo; conditions: 0.1 mmol/kg
Experimental: as §7, §8, §9

In the case of `O=C(O)CN(CCCN(CC(=O)O)CC(=O)O)CCN(CC(=O)O)CC(=O)O` [TTDA, 3,6,10-tri(carboxymethyl)-3,6,10-triazadodecanedioic acid], the “selectivity constant log K(Gd/Ca)” value [1] is reported as 8.32, the “modified selectivity constant log K sel'” value ([2]; pH 7.4, plasma concentrations of Ca^2+, Cu^2+ and Zn^2+) is reported as 8.44 and the “log K [CaHL]/[CaL][H]” value [3] is reported as 6.06. For the same molecule, the “pM (Gd^3+)” value (pM value, Gd^3+) was 17.03, the “pM (Zn^2+)” value (pM value, Zn^2+) was 13.22 and the “log K [ZnHL]/[ZnL][H]” value [4] was 7.41. For the same molecule, the “pM (Cu^2+)” value (pM value, Cu^2+) was 13.58, the “selectivity constant log K(Gd/Zn)” value [5] was 4.18 and the “maximum concentration of first protonated species [HL]^4-” value [6] was 77.5%. For the same molecule, the “maximum concentration of fourth protonated species [H4 L]^-” value [6] was 60.9%, the “maximum concentration of second protonated species [H2 L]^3-” value [6] was 97.5% and the “maximum concentration of third protonated species [H3 L]^2-” value [6] was 87.75%. The “pH of maximum concentration of [H2 L]^3-” value [6] was 7.0 pH, the “pH of maximum concentration of [H3 L]^2-” value [6] was 3.7 pH and the “pH of maximum concentration of [H4 L]^-” value [6] was 2.3 pH. The “pH of maximum concentration of [HL]^4-” value [6] was 9.8 pH, the “pH range in which [H2 L]^3- is dominant” value [6] was 5-9 pH and the “pH range in which [H3 L]^2- is dominant” value [6] was 3-5 pH. For the same molecule, the “pH range in which [H4 L]^- is dominant” value [6] was 2-3 pH, the “pH range in which [HL]^4- is dominant” value [6] was 9-10.5 pH and the “pH range in which deprotonated species [L]^5- is dominant” value [6] was “greater than 11 pH”. The “basicity, Σ PKa” value [7] was 27.44, the pKa ([7]; read-out: first protonation constant log K1^H, [HL]/[L][H]) was 10.6 and the pKa ([7]; read-out: fourth protonation constant log K4^H, [H4 L]/[H3 L][H]) was 2.8. The pKa ([7]; read-out: second protonation constant log K2^H, [H2 L]/[HL][H]) was 8.92, the pKa ([7]; read-out: third protonation constant log K3^H, [H3 L]/[H2 L][H]) was 5.12 and the “pM (Ca^2+)” value (pM value, Ca^2+) was 9.73. For the same molecule, the “selectivity constant log K(Gd/Cu)” value [8] was 3.46, the “log K [GdL]/[Gd][L]” value [9] was 22.77 and the “conditional stability constant log KGdL'” value ([9]; pH 7.4) was 18.04. The “log K [CuHL]/[CuL][H]” value [10] was 5.52 and the “log K [CuL]/[Cu][L]” value [10] was 19.31.

In the case of `O=C([O-])CN(CCN(CC(=O)[O-])CC(=O)[O-])CCN(CC(=O)[O-])CC(=O)[O-].[Gd+3]` [[Gd(DTPA)]^2-], the “modified selectivity constant log K sel'” value ([2]; pH 7.4) is reported as 7.07 and 7.04, the “time to maximum kidney enhancement” value (kidney) is reported as 1 min and the “kidney enhancement at 30 minutes” value (kidney; 30 minutes) is reported as 109±14%. The “Relaxivity R1” value ([11]; pH 7.5 ± 0.1) was 3.71 dm^3 mmol^-1 s^-1 and 3.71 ± 0.05 dm^3 mmol^-1 s^-1, the “Relaxivity R1 (conclusion)” value ([11]; pH not given) was 3.70 dm^3 mmol^-1 s^-1 and the LD50 [12] was 5.6 mmol/kg. For the same molecule, the “log K [GdL]/[Gd][L]” value [9] was 22.46, the “conditional stability constant (log Kcond)” value ([9]; pH 4) was 11.25 and the “stability constant larger than that of [Gd(DTPA-BMA)] by” value ([9]; pH 7.4) was 3.2. The “stability constant under physiological conditions (pH 7.4)” value ([9]; pH 7.4) was 22.46, the “stability constant (log KML) larger than that of [Gd(DTPA-BMA)] by” value ([9]; pH 11) was 5.5 and the “time to maximum liver enhancement” value (liver) was at most 1 min. For the same molecule, the “liver enhancement after 30 minutes” value (liver; 30 minutes) was 24±7% and the maximum liver enhancement (liver; within 1 minute) was 57±9%.
